# Results from patent US20250360235A1, “RADI[…] AND METHOD FOR RADIOLABELLING” (Telix Innovations SA, priority 2024, published 2025).
# Columns and labels:
# Assay type in all cases: physicochemical
# [1] = pH of [68Ga]PSMA-11 solution (acceptance 4.0-5.0)
# Experimental: (§1) 100 μl of the ascorbic acid solution (equivalent to 25 mg ascorbic acid) was taken from vial 3, and was filtered through a 5 μm filter needle. The sodium ascorbate solution was subsequently added to vail 2, and mixed thoroughly. The obtained content of vial 2 was added to vial 1, and again mixed thoroughly. To this obtained vail 1, the eluate, comprising the gallium-68, was added to obtain a gallium-68 labelled PSMA-11 solution. Optionally, a 2.5 ml 0.9% sodium chloride solution may be added to increase the volume and/or to amend the osmolality to be under 1000 mOsm/kg.
# The pH of the gallium-68 labelled PSMA-11 solution was 4.5 immediately after the radiolabelling procedure and was unchanged after 4 hours.
# as §1, with “a Gallium-68” for “a gallium-68”, “a” for “a 2.5 ml 0.9%”, “volume of the obtained Gallium-68 labelled PSMA-11 solution” for “volume”, “mOsm/kg. The pH of the gallium-68 labelled PSMA-11 solution was 4.5 immediately after the radiolabelling procedure and was unchanged after 4 hours.” for “mOsm/kg.”
# as §1, with “a Gallium-68” for “a gallium-68”, “a” for “a 2.5 ml 0.9%”, “volume of the obtained Gallium-68 labelled PSMA-11 solution” for “volume”, “mOsm/kg. The pH of the gallium-68 labelled PSMA-11 solution was 4.5 immediately after the radiolabelling procedure and was unchanged after 6 hours.” for “mOsm/kg.”
# (§2) Table 1 to Table 5 show the results of various radiolabelling experiments on radiochemical purity and the chelation yield. The radiolabelling experiments in the tables are carried out as described in: • Example 1 for when the gallium-68 source is GE Liquid target generator and EZAG GalliaPharm generator; • Example 2 for when the gallium-68 source is IRE Galli Eo generator; • Example 3 for when the gallium-68 source is GE solid target generator;
# (§3) However, the experiments were carried out with the amount of ascorbic acid as indicated in the Tables 1 to 5, and the activity as indicated in the Tables 1 to 5. Radiochemical purities were measured at various times (T0, T1, T4, T6) after the radiolabelled experiments have been conducted.
# (§4) The kits of Example 1, Example 2 or Example 3, with amounts of ascorbic acid as set out in Table 7 were used in the experiments for the ascorbic acid bracketing matrix. Three strengths of [^68Ga]Ga-PSMA-11 will be tested, i.e. 50 mCi/ml, 7 mCi/ml and 1 mCi/ml. Radiochemical purity was determined at different time points (TO, T1, T4 or T6), as set out in Table 7.
# [2] = Visual inspection of [68Ga]PSMA-11 solution (acceptance: colourless to slightly yellow solution, free from visible particles); design: key: C = all results conform to specifications
# Experimental: as §2, §3, §4
# [3] = Drug product stability against radiolysis with ascorbic acid
# Experimental: as §2, §3, §4
# [4] = control, 0 mg ascorbic acid, 70 mCi, GE Solid Target, n=1, T0
# [5] = control, 0 mg ascorbic acid, 70 mCi, GE Solid Target, n=1, T4 (4 h)
# [6] = validation batches, 25 mg ascorbic acid, 51.6-62.7 mCi, 4.56-5.88 mCi/mL, IRE Galli Eo, n=3, T0
# [7] = validation batches, 25 mg ascorbic acid, 51.6-62.7 mCi, 4.56-5.88 mCi/mL, IRE Galli Eo, n=3, T4 (4 h)
# [8] = validation batches, 25 mg ascorbic acid, 53.3-74.4 mCi, 5.03-6.92 mCi/mL, GE Liquid target, n=3, T0
# [9] = validation batches, 25 mg ascorbic acid, 53.3-74.4 mCi, 5.03-6.92 mCi/mL, GE Liquid target, n=3, T4 (4 h)
# [10] = validation batches, 25 mg ascorbic acid, 65.0-66.4 mCi, 5.74-6.15 mCi/mL, EZAG GalliaPharm, n=3, T0
# [11] = validation batches, 25 mg ascorbic acid, 65.0-66.4 mCi, 5.74-6.15 mCi/mL, EZAG GalliaPharm, n=3, T4 (4 h)
# [12] = validation batches, 25 mg ascorbic acid, 537-551 mCi, 50.2-51.6 mCi/mL, GE Solid Target, n=3, T0
# [13] = validation batches, 25 mg ascorbic acid, 537-551 mCi, 50.2-51.6 mCi/mL, GE Solid Target, n=3, T6 (6 h)
# [14] = validation batches, 25 mg ascorbic acid, 555-564 mCi, 51.1-52.7 mCi/mL, ARTMS Solid Target, n=3, T0
# [15] = validation batches, 25 mg ascorbic acid, 555-564 mCi, 51.1-52.7 mCi/mL, ARTMS Solid Target, n=3, T6 (6 h)
structure (smiles),measurement,setting,value
"O=C([O-])CN(CCN(CC(=O)[O-])Cc1cc(CCC(=O)NCCCCCC(=O)NCCCC[C@H](NC(=O)N[C@@H](CCC(=O)O)C(=O)O)C(=O)O)ccc1[O-])Cc1cc(CCC(=O)O)ccc1[O-].[68Ga+3].[OH3+] [[^68Ga]PSMA-11, gallium-68 radiolabelled Glu-urea-Lys-HBED-CC (gozetotide or PSMA-11)]",pH,"[1]; bracketing ~7 mCi/mL, 31.25 mg ascorbic acid, 61.5-62.0 mCi, 5.85-5.88 mCi/mL, EZAG GalliaPharm, n=2, T4 (4 h)",C (C = Conforms to specifications)
same,pH,"[1]; bracketing ~50 mCi/mL, 20 mg ascorbic acid, 514-544 mCi, 48.3-51.9 mCi/mL, GE Solid Target, n=2, T0",C (C = Conforms to specifications)
same,pH,"[1]; bracketing ~50 mCi/mL, 20 mg ascorbic acid, 514-544 mCi, 48.3-51.9 mCi/mL, GE Solid Target, n=2, T6 (6 h)",C (C = Conforms to specifications)
same,pH,"[1]; bracketing ~50 mCi/mL, 25 mg ascorbic acid, 537-551 mCi, 50.2-51.6 mCi/mL, GE Solid Target, n=3, T0",C (C = Conforms to specifications)
same,pH,"[1]; bracketing ~50 mCi/mL, 25 mg ascorbic acid, 537-551 mCi, 50.2-51.6 mCi/mL, GE Solid Target, n=3, T6 (6 h)",C (C = Conforms to specifications)
same,pH,"[1]; bracketing ~50 mCi/mL, 31.25 mg ascorbic acid, 500-544 mCi, 48.1-51.7 mCi/mL, GE Solid Target, n=2, T0",C (C = Conforms to specifications)
same,pH,"[1]; bracketing ~50 mCi/mL, 31.25 mg ascorbic acid, 500-544 mCi, 48.1-51.7 mCi/mL, GE Solid Target, n=2, T6 (6 h)",C (C = Conforms to specifications)
same,pH,[1]; [4],C (C = all results conform to specifications)
same,pH,[1]; [5],C (C = all results conform to specifications)
same,pH,[1]; [6],C (C = all results conform to specifications)
same,pH,[1]; [7],C (C = all results conform to specifications)
same,pH,[1]; [8],C (C = all results conform to specifications)
same,pH,[1]; [9],C (C = all results conform to specifications)
same,pH,[1]; [10],C (C = all results conform to specifications)
same,pH,[1]; [11],C (C = all results conform to specifications)
same,pH,[1]; [12],C (C = all results conform to specifications)
same,pH,[1]; [13],C (C = all results conform to specifications)
same,pH,[1]; [14],C (C = all results conform to specifications)
same,pH,[1]; [15],C (C = all results conform to specifications)
same,Visual Inspection,"[2]; 25 mg ascorbic acid, 10.2 mCi, 0.97 mCi/mL, IRE Galli Eo, n=1, T0",C
same,Visual Inspection,"[2]; 25 mg ascorbic acid, 10.2 mCi, 0.97 mCi/mL, IRE Galli Eo, n=1, T1 (1 h)",C
same,Visual Inspection,"[2]; 25 mg ascorbic acid, 19.5-20.0 mCi, 1.85-1.90 mCi/mL, EZAG GalliaPharm, n=2, T0",C
same,Visual Inspection,"[2]; 25 mg ascorbic acid, 19.5-20.0 mCi, 1.85-1.90 mCi/mL, EZAG GalliaPharm, n=2, T1 (1 h)",C
same,Visual Inspection,"[2]; 25 mg ascorbic acid, 23.3-24 mCi, 2.22-2.28 mCi/mL, IRE Galli Eo, n=2, T0",C
same,Visual Inspection,"[2]; 25 mg ascorbic acid, 23.3-24 mCi, 2.22-2.28 mCi/mL, IRE Galli Eo, n=2, T4 (4 h)",C
same,Visual Inspection,"[2]; 25 mg ascorbic acid, 46.0-46.1 mCi, 4.38-4.39 mCi/mL, EZAG GalliaPharm, n=2, T0",C
same,Visual Inspection,"[2]; 25 mg ascorbic acid, 46.0-46.1 mCi, 4.38-4.39 mCi/mL, EZAG GalliaPharm, n=2, T4 (4 h)",C
same,Visual Inspection,[2]; [4],C
same,Visual Inspection,[2]; [5],C
same,Visual Inspection,[2]; [6],C
same,Visual Inspection,[2]; [7],C
same,Visual Inspection,[2]; [8],C
same,Visual Inspection,[2]; [9],C
same,Visual Inspection,[2]; [10],C
same,Visual Inspection,[2]; [11],C
same,Visual Inspection,[2]; [12],C
same,Visual Inspection,[2]; [13],C
same,Visual Inspection,[2]; [14],C
same,Visual Inspection,[2]; [15],C
same,time for which stability is maintained,"[3]; 20 mg ascorbic acid, highest strength 48.3-51.9 mCi/mL (worst case), Table 8",up to 6 hours
same,time for which the formulation is stabilized,"[3]; 25 mg ascorbic acid, Table 3",up to 4 hours
same,time for which ascorbic acid is an effective radio-stabilizer / stability maintained,"[3]; 10-50 mg ascorbic acid, 458-560 mCi starting activity, 48.3-71.1 mCi/mL, Table 2",up to 6 hours
same,stability,"[3]; 18.75-31.25 mg ascorbic acid, 5.1-5.88 mCi/mL and 0.84-2.54 mCi/mL, Tables 9 and 10",stability of the [^68Ga]PSMA-11 is maintained
